Results taken from patent publication US9758485B2, “Compounds for controlling arthropods” (priority 2013, dated 2017).
Where two headings read alike, the source gives them in different places.

Assays:
Boophilus microplus = Boophilus microplus - injection test; assay type: in vivo; conditions: application rate 20 μg/animal; injected into engorged adult female ticks; laying of fertile eggs, after 7 days
Description: Boophilus microplus—Injection Test
(§1) Solvent: dimethyl sulphoxide
To produce an appropriate active ingredient formulation, 10 mg of active ingredient are mixed with 0.5 ml of solvent and the concentrate is diluted with solvent to the desired concentration.
1 μl of the active ingredient solution is injected into the abdomen of 5 engorged adult female cattle ticks (Boophilus microplus). The animals are transferred into dishes and kept in a climate-controlled room.
Efficacy is assessed after 7 days by laying of fertile eggs. Eggs which are not visibly fertile are stored in a climate-controlled cabinet until the larvae hatch after about 42 days. An efficacy of 100% means that none of the ticks has laid any fertile eggs; 0% means that all the eggs are fertile.

Lucilia cuprina = Lucilia cuprina test; assay type: in vivo; conditions: application rate 100 ppm, L1 larvae in minced horsemeat, kill after 2 days
Description: as §1
To produce an appropriate active ingredient formulation, 10 mg of active ingredient are mixed with 0.5 ml of dimethyl sulphoxide, and the concentrate is diluted with water to the desired concentration.
About 20 L1 larvae of the Australian sheep blowfly (Lucilia cuprina) are transferred into a test vessel containing minced horsemeat and the active ingredient preparation of the desired concentration.
After 2 days, the kill in % is determined. 100% means that all the larvae have been killed; 0% means that none of the larvae have been killed.

[1] = logP determination by HPLC on a reversed-phase column (C18), EEC Directive 79/831 Annex V.A8; assay type: physicochemical; conditions: for logP^a): HPLC-MS method a), Table I-T3
Ctenocephalides felis = Ctenocephalides felis - oral test; assay type: in vivo; conditions: application rate 100 ppm in citrated cattle blood; adult fleas; kill after 2 days
Description: Ctenocephalides felis—Oral Test
as §1
For the purpose of producing an appropriate active ingredient formulation, 10 mg of active ingredient are mixed with 0.5 ml of dimethyl sulphoxide. Dilution with citrated cattle blood gives the desired concentration.
About 20 unfed adult cat fleas (Ctenocephalides felis) are placed into a chamber which is closed at the top and bottom with gauze. A metal cylinder whose bottom end is closed with parafilm is placed onto the chamber. The cylinder contains the blood/active ingredient preparation, which can be imbibed by the fleas through the parafilm membrane.
After 2 days, the kill in % is determined. 100% means that all of the fleas have been killed; 0% means that none of the fleas have been killed.

[2] = HPLC-MS, reversed-phase column (C18)
[3] = HPLC on reversed-phase column (C18)
[4] = HPLC, reversed-phase C18, acetonitrile/water with formic acid, 55° C.

SMILES	efficacy (Boophilus microplus) [%]	efficacy (Lucilia cuprina) [%]	logP^a) [1]	efficacy (Ctenocephalides felis) [%]	also measured
Cc1cc(C(F)(C(F)(F)F)C(F)(F)F)cc(C)c1-c1ccn(-c2ccc(Cl)c(C(=O)NC3(C#N)CC3)c2)n1 [I-T2-2]	100	–	–	–	–
Cc1cc(C(F)(C(F)(F)F)C(F)(F)F)cc(C)c1-n1cc(-c2ccc(Cl)c(C(=O)NCC(=O)NCC(F)(F)F)c2)cn1 [I-T3-6]	100	100	4.1	–	–
Cc1cc(C(F)(C(F)(F)F)C(F)(F)F)cc(C)c1-n1cc(-c2cccc(C(=O)NC3(C#N)CC3)c2F)cn1 [I-T3-10]	100	100	4.2	100	–
Cc1cc(C(F)(C(F)(F)F)C(F)(F)F)cc(C)c1-n1cc(-c2cc(C(=O)NC3CC3)c(F)cc2Cl)cn1 [I-T3-11]	100	–	4.9	95	–
Cc1cc(C(F)(C(F)(F)F)C(F)(F)F)cc(C)c1-n1cc(-c2cc(C(=O)NC3(C#N)CC3)c(F)cc2Cl)cn1 [I-T3-12]	100	80	4.7	100	–
Cc1cc(C(F)(C(F)(F)F)C(F)(F)F)cc(C)c1-n1cc(-c2cc(C(=O)NC3CC3)ccc2F)cn1 [I-T3-13]	100	–	4.5	80	–
Cc1cc(C(F)(C(F)(F)F)C(F)(F)F)cc(C)c1-n1cc(-c2cc(C(=O)NC3CC3)cc(C(F)(F)F)c2)cn1 [I-T3-15]	100	100	4.9	90	–
Cc1ccc(C(=O)NC2CC2)cc1-c1cnn(-c2c(C)cc(C(F)(C(F)(F)F)C(F)(F)F)cc2C)c1 [I-T3-16]	–	–	4.4	80	–
Cc1cc(C(F)(C(F)(F)F)C(F)(F)F)cc(C)c1-n1cc(-c2cc(C(=O)NC3(C#N)CC3)cc(C(F)(F)F)c2)cn1 [I-T3-18]	100	100	4.7	100	–
Cc1cc(C(F)(C(F)(F)F)C(F)(F)F)cc(C)c1-n1cc(-c2cc(C(=O)NC3(C#N)CC3)ccc2F)cn1 [I-T3-19]	100	–	4.3	95	–
O=C(NCC(F)(F)F)c1cc(-c2cnn(-c3ccc(C(F)(C(F)(F)F)C(F)(F)F)cc3Cl)c2)ccc1Cl [I-T3-32]	100	100	4.7	100	–
O=C(NCCC(F)(F)F)c1cc(-c2cnn(-c3ccc(C(F)(C(F)(F)F)C(F)(F)F)cc3Cl)c2)ccc1Cl [I-T3-33]	100	100	4.7	100	–
O=C(NCC(F)(F)F)c1cc(-c2cnn(-c3ccc(C(F)(C(F)(F)F)C(F)(F)F)cc3OC(F)(F)F)c2)ccc1Cl [I-T3-36]	100	100	5.0	80	–
O=C(NC1CSC1)c1cc(-c2cnn(-c3ccc(C(F)(C(F)(F)F)C(F)(F)F)cc3OC(F)(F)F)c2)ccc1Cl [I-T3-37]	100	100	4.9	90	–
CCc1cc(C(F)(C(F)(F)F)C(F)(F)F)ccc1-n1cc(-c2ccc(Cl)c(C(=O)NCC(F)(F)F)c2)cn1 [I-T3-40]	100	100	4.9	100	–
CCc1cc(C(F)(C(F)(F)F)C(F)(F)F)ccc1-n1cc(-c2ccc(Cl)c(C(=O)NC3CSC3)c2)cn1 [I-T3-41]	100	90	4.9	95	–
CCc1cc(C(F)(C(F)(F)F)C(F)(F)F)cc(C)c1-n1cc(-c2ccc(Cl)c(C(=O)NCC(F)(F)F)c2)cn1 [I-T3-45]	100	100	5.0	95	–
N#CC1(NC(=O)c2cc(-c3cnn(-c4c(F)cc(C(F)(F)F)cc4F)c3)ccc2Cl)CC1 [I-T3-49]	100	100	3.2	100	–
N#CC1(NC(=O)c2cc(-c3cnn(-c4ncc(C(F)(F)F)cc4Cl)c3)ccc2Cl)CC1 [I-T3-59]	100	100	3.1	100	–
O=C(NC1CC1)c1cc(-c2cnn(-c3ncc(C(F)(F)F)cc3Cl)c2)ccc1Cl [I-T3-60]	100	90	3.2	90	–

SMILES	efficacy (Boophilus microplus) [%]	efficacy (Lucilia cuprina) [%]	logP^a) [1]	efficacy (Ctenocephalides felis) [%]	also measured
CCc1cc(C(F)(C(F)(F)F)C(F)(F)F)cc(C)c1-n1cc(-c2cccc(C(=O)NC3(C#N)CC3)c2F)cn1 [I-T3-69]	100	95	4.5	100	–
CCc1cc(C(F)(C(F)(F)F)C(F)(F)F)ccc1-n1cc(-c2cccc(C(=O)NC3(C#N)CC3)c2F)cn1 [I-T3-74]	100	90	4.5	–	–
CCc1cc(C(F)(C(F)(F)F)C(F)(F)F)ccc1-n1cc(-c2cccc(C(=O)NC3CC3)c2F)cn1 [I-T3-75]	90	80	4.7	–	–
Cc1cc(C(F)(C(F)(F)F)C(F)(F)F)cc(C)c1-n1cc(-c2ncc(Cl)c(C(=O)NC3CC3)n2)cn1 [I-T3-121, 5-chloro-N-cyclopropyl-2-[1-[2,6-dimethyl-4-[1,2,2,2-tetrafluoro-1-(trifluoromethyl)ethyl]phenyl]pyrazol-4-yl]pyrimidine-4-carboxamide]	–	–	–	–	pest or weed control at 100 ppm (Lucilia cuprina; Lucilia cuprina, 48 h, read-out: efficacy): 80%; chromatographic logP ([1]; reversed-phase HPLC column (C18), HPLC, reversed-phase C18, acetonitrile/water with formic acid, 55° C., read-out: logP): 4.5; chromatographic logP ([1]; reversed-phase HPLC column (C18), HPLC-MS method a), reversed-phase column (C18); read-out: logP^a)): 4.5; chromatographic logP ([1]; reversed-phase HPLC column (C18), HPLC-MS, reversed-phase column (C18), read-out: log P): 4.5
O=C(NC1CC1)c1cc(-c2cnn(-c3c(Cl)cc(C(F)(C(F)(F)F)C(F)(F)F)cc3Cl)c2)cnc1N1CCCC1 [I-T3-135]	–	–	–	100	log P [1, 2]: 4.3
Cc1cc(C(F)(C(F)(F)F)C(F)(F)F)cc(C)c1-n1cc(-c2cnc(C3CC3)c(C(=O)N(C)C3CC3)c2)cn1 [I-T3-142]	100	–	–	–	log P [1, 2]: 4.6
O=C(NC1CC1)c1cc(-c2cnn(-c3c(Cl)cc(C(O)(C(F)(F)F)C(F)(F)F)cc3Cl)c2)cnc1Cl [I-T3-221]	–	–	–	–	log P [1, 3]: 3.0
N#CC1(NC(=O)c2cc(-c3cnn(-c4c(Cl)cc(C(O)(C(F)(F)F)C(F)(F)F)cc4Cl)c3)cnc2Cl)CC1 [I-T3-222]	–	–	–	–	log P [1, 3]: 3.0
CN(C(=O)c1cc(-c2cnn(-c3c(Cl)cc(C(O)(C(F)(F)F)C(F)(F)F)cc3Cl)c2)cnc1Cl)C1(C#N)CC1 [I-T3-223]	–	–	–	–	log P [1, 3]: 3.3
O=C(NC1CC1)c1cc(-c2cnn(-c3c(I)cc(C(F)(C(F)(F)F)C(F)(F)F)cc3OC(F)(F)F)c2)ccc1Cl [I-T3-224]	–	–	–	–	log P [1, 3]: 4.7
CN(C(=O)c1cc(-c2cnn(-c3c(I)cc(C(F)(C(F)(F)F)C(F)(F)F)cc3OC(F)(F)F)c2)ccc1Cl)C1CC1 [I-T3-225]	–	–	–	–	log P [1, 3]: 5.2
N#CC1(NC(=O)c2cc(-c3cnn(-c4c(I)cc(C(F)(C(F)(F)F)C(F)(F)F)cc4OC(F)(F)F)c3)ccc2Cl)CC1 [I-T3-226]	–	–	–	–	log P [1, 3]: 4.6
O=C(NC1CC1)c1cc(-c2cnn(-c3c(I)cc(C(F)(C(F)(F)F)C(F)(F)F)cc3C(F)(F)F)c2)ccc1Cl [I-T3-227]	–	–	–	–	log P [1, 3]: 4.5
N#CC1(NC(=O)c2cc(-c3cnn(-c4c(I)cc(C(F)(C(F)(F)F)C(F)(F)F)cc4C(F)(F)F)c3)ccc2Cl)CC1 [I-T3-228]	–	–	–	–	log P [1, 3]: 4.4
CN(C(=O)c1cc(-c2cnn(-c3c(I)cc(C(F)(C(F)(F)F)C(F)(F)F)cc3C(F)(F)F)c2)ccc1Cl)C1CC1 [I-T3-229]	–	–	–	–	log P [1, 3]: 5.1
Cc1cc(C(F)(C(F)(F)F)C(F)(F)F)cc(C)c1-n1ccc(-c2ccc(Cl)c(C(=O)NC3(C#N)CC3)c2)c1 [I-T46-1]	–	–	–	–	logP [1, 4]: 4.90
CN(C(=O)c1cc(-c2ccn(-c3c(Cl)cc(C(F)(C(F)(F)F)C(F)(F)F)cc3Cl)c2)cnc1Cl)C1CC1 [I-T46-3]	–	–	–	–	logP [1, 4]: 5.0
O=C(NC1CC1)c1cc(-c2ccn(-c3c(Cl)cc(C(F)(C(F)(F)F)C(F)(F)F)cc3Cl)c2)cnc1Cl [I-T46-4]	–	–	–	–	logP [1, 4]: 4.5
N#CC1(NC(=O)c2cc(-c3ccn(-c4c(Cl)cc(C(F)(C(F)(F)F)C(F)(F)F)cc4Cl)c3)cnc2Cl)CC1 [I-T46-5]	–	–	–	–	logP [1, 4]: 4.4
CN(C(=O)c1cc(-c2ccn(-c3c(Cl)cc(C(F)(C(F)(F)F)C(F)(F)F)cc3Cl)c2)cnc1Cl)C1(C#N)CC1 [I-T46-6]	–	–	–	–	logP [1, 4]: 4.8
